Source: ChEMBL document CHEMBL1201862, “PubChem BioAssay data set” (2004)
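Test compounds were applied to cells in 96-well plates for 48 hours at 5 doses. GI50 is the concentration that inhibits growth by half.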 The source made the active and inactive calls. Cut-off read from the data, not from the text of the source: active = GI50 up to about 1.1 µM and inactive = higher.

Experiments:
Experiment in all cases: NCI-60 cell line screen, 48 h
CAKI-1 = test system: CAKI-1
HL-60 = test system: HL-60
NCI-H23 = test system: NCI-H23
SW-620 = test system: SW-620
NCI/ADR-RES = test system: NCI/ADR-RES
SNB-75 = test system: SNB-75
Malme-3M = test system: Malme-3M
SNB-19 = test system: SNB-19
TK-10 = test system: TK-10
NCI-H460 = test system: NCI-H460
HCC 2998 = test system: HCC 2998
SK-OV-3 = test system: SK-OV-3
DU-145 = test system: DU-145
UO-31 = test system: UO-31
RPMI-8226 = test system: RPMI-8226
OVCAR-4 = test system: OVCAR-4
M19-MEL = test system: M19-MEL
LXFL 529 = test system: LXFL 529
DMS-114 = test system: DMS-114
SNB-78 = test system: SNB-78

SMILES	GI50 (CAKI-1)	GI50 (HL-60)	GI50 (NCI-H23)	GI50 (SW-620)	GI50 (NCI/ADR-RES)	GI50 (SNB-75)	GI50 (Malme-3M)	GI50 (SNB-19)	GI50 (TK-10)	GI50 (NCI-H460)	GI50 (HCC 2998)	GI50 (SK-OV-3)	GI50 (DU-145)	GI50 (UO-31)	GI50 (RPMI-8226)	GI50 (OVCAR-4)	GI50 (M19-MEL)	GI50 (LXFL 529)	GI50 (DMS-114)	GI50 (SNB-78)
NNC(=O)c1ccccc1NC(=O)/C(=C/c1ccccc1)NC(=O)c1ccccc1	> 100 µM (inactive)	76.9 µM (inactive)	> 100 µM (inactive)	> 100 µM (inactive)	56.8 µM (inactive)	70.1 µM (inactive)	> 100 µM (inactive)	43 µM (inactive)	> 100 µM (inactive)	80 µM (inactive)	> 100 µM (inactive)	> 100 µM (inactive)	> 100 µM (inactive)	65.3 µM (inactive)	> 100 µM (inactive)	> 100 µM (inactive)	–	–	–	–
CCOC(=O)C(C(N)=O)C1=Nc2cc([N+](=O)[O-])ccc2N/C1=C\C(=O)c1ccccc1 (stereo unspecified)	22.9 µM (inactive)	8.93 µM (inactive)	11.5 µM (inactive)	15.6 µM (inactive)	16.8 µM (inactive)	17.7 µM (inactive)	19.9 µM (inactive)	18.5 µM (inactive)	11 µM (inactive)	13.4 µM (inactive)	10.1 µM (inactive)	14.1 µM (inactive)	13.5 µM (inactive)	19.5 µM (inactive)	11.1 µM (inactive)	18.7 µM (inactive)	–	–	–	–
CC12C/C(=C\c3ccccc3)C(=O)C3C1CCCC32	> 100 µM (inactive)	21.5 µM (inactive)	> 100 µM (inactive)	> 100 µM (inactive)	–	92.9 µM (inactive)	> 100 µM (inactive)	> 100 µM (inactive)	> 100 µM (inactive)	> 100 µM (inactive)	44.5 µM (inactive)	> 100 µM (inactive)	–	> 100 µM (inactive)	34.2 µM (inactive)	66.4 µM (inactive)	58.6 µM (inactive)	56.9 µM (inactive)	41.6 µM (inactive)	–
Cc1ccc(S(=O)(=O)N(CC(O)COc2ccccc2)c2c(F)c(F)c(F)c(F)c2F)cc1 (stereo unspecified)	0.237 µM (active)	6.32 µM (inactive)	14.4 µM (inactive)	18.7 µM (inactive)	17 µM (inactive)	16.3 µM (inactive)	22.8 µM (inactive)	18.5 µM (inactive)	24.7 µM (inactive)	14.4 µM (inactive)	17.3 µM (inactive)	19.9 µM (inactive)	22.3 µM (inactive)	12.6 µM (inactive)	1.04 µM (active)	13.3 µM (inactive)	–	–	–	–
CC1CCc2c(sc3ncnc(N/N=C/c4ccc(Cl)c(Cl)c4)c23)C1 (stereo unspecified)	26.2 µM (inactive)	22.2 µM (inactive)	13.2 µM (inactive)	6.07 µM (inactive)	–	15.1 µM (inactive)	31.2 µM (inactive)	17.5 µM (inactive)	23.7 µM (inactive)	7.4 µM (inactive)	23.6 µM (inactive)	25.2 µM (inactive)	–	12.2 µM (inactive)	13.2 µM (inactive)	–	19.8 µM (inactive)	–	3.79 µM (inactive)	–
C/C(Cl)=N/OC(=O)Nc1ccc(S(N)(=O)=O)c(C)c1	1.83 µM (inactive)	1.42 µM (inactive)	18.1 µM (inactive)	2.38 µM (inactive)	14.1 µM (inactive)	19 µM (inactive)	2.08 µM (inactive)	18.1 µM (inactive)	5.58 µM (inactive)	39.9 µM (inactive)	18.4 µM (inactive)	> 43.5 µM (inactive)	16.6 µM (inactive)	14.9 µM (inactive)	1.95 µM (inactive)	15.5 µM (inactive)	–	–	–	–
COc1cc(C2c3cc4c(cc3[C@@H](NCCN3CCCCC3)C3COC(=O)[C@H]23)OCO4)cc(OC)c1O (stereo partly specified)	0.0802 µM (active)	0.0322 µM (active)	0.167 µM (active)	0.621 µM (active)	–	0.256 µM (active)	0.451 µM (active)	0.323 µM (active)	1.89 µM (inactive)	–	–	0.0526 µM (active)	–	0.566 µM (active)	0.4 µM (active)	0.27 µM (active)	1 µM (active)	2 µM (inactive)	–	2.7 µM (inactive)
O=C(C=C1SCCS1)/C=C\c1ccc(Cl)cc1	> 100 µM (inactive)	56.9 µM (inactive)	> 100 µM (inactive)	> 100 µM (inactive)	–	> 100 µM (inactive)	> 100 µM (inactive)	> 100 µM (inactive)	97.5 µM (inactive)	–	26.4 µM (inactive)	> 100 µM (inactive)	–	> 100 µM (inactive)	31.5 µM (inactive)	> 100 µM (inactive)	> 100 µM (inactive)	69.7 µM (inactive)	–	> 100 µM (inactive)
CCN1CCN=c2c3cc(OC)ccc3n3cnc4ccc1c2c43	0.34 µM (active)	0.206 µM (active)	0.328 µM (active)	0.824 µM (active)	0.145 µM (active)	0.456 µM (active)	0.267 µM (active)	0.301 µM (active)	0.411 µM (active)	0.0948 µM (active)	0.244 µM (active)	0.348 µM (active)	0.483 µM (active)	0.147 µM (active)	0.171 µM (active)	0.371 µM (active)	–	–	–	–
Cc1ccc(/C=C2\CCCC(CN3CCCCC3)C2=O)cc1 (stereo unspecified)	1.79 µM (inactive)	0.555 µM (active)	2.17 µM (inactive)	1.75 µM (inactive)	5.38 µM (inactive)	4.66 µM (inactive)	2.51 µM (inactive)	15.2 µM (inactive)	3.22 µM (inactive)	3.89 µM (inactive)	15.3 µM (inactive)	16.5 µM (inactive)	11.7 µM (inactive)	1.84 µM (inactive)	> 100 µM (inactive)	1.79 µM (inactive)	–	–	–	–
c1ccc(-c2nc(-c3ccccc3)c(-c3ccccc3)[nH]2)cc1	> 100 µM (inactive)	18.1 µM (inactive)	> 100 µM (inactive)	> 100 µM (inactive)	60.3 µM (inactive)	75 µM (inactive)	36.1 µM (inactive)	> 100 µM (inactive)	> 100 µM (inactive)	44.9 µM (inactive)	> 100 µM (inactive)	> 100 µM (inactive)	> 100 µM (inactive)	> 100 µM (inactive)	> 47.6 µM (inactive)	85.9 µM (inactive)	–	–	–	–
Cc1cn(C2CC(N)C(C(=O)O)O2)c(=O)[nH]c1=O (stereo unspecified)	> 100 µM (inactive)	> 100 µM (inactive)	> 100 µM (inactive)	> 100 µM (inactive)	> 100 µM (inactive)	> 100 µM (inactive)	> 100 µM (inactive)	> 100 µM (inactive)	> 100 µM (inactive)	> 100 µM (inactive)	> 100 µM (inactive)	> 100 µM (inactive)	> 100 µM (inactive)	> 100 µM (inactive)	> 100 µM (inactive)	> 100 µM (inactive)	–	–	–	–
CO[C@]12C[C@@H](CNC(=O)c3cc(Br)c[nH]3)O[C@H]1NC(=O)N2	> 100 µM (inactive)	> 100 µM (inactive)	> 100 µM (inactive)	> 100 µM (inactive)	> 100 µM (inactive)	> 100 µM (inactive)	> 100 µM (inactive)	> 100 µM (inactive)	> 100 µM (inactive)	> 100 µM (inactive)	> 100 µM (inactive)	> 100 µM (inactive)	> 100 µM (inactive)	> 100 µM (inactive)	> 100 µM (inactive)	> 100 µM (inactive)	–	–	–	–
O=C1CCCC/C1=C\c1ccc(Br)cc1	17 µM (inactive)	2.4 µM (inactive)	16.2 µM (inactive)	> 100 µM (inactive)	3.73 µM (inactive)	16 µM (inactive)	7.73 µM (inactive)	3.69 µM (inactive)	16.7 µM (inactive)	35.5 µM (inactive)	23.2 µM (inactive)	24.8 µM (inactive)	40 µM (inactive)	16.1 µM (inactive)	15.7 µM (inactive)	22 µM (inactive)	–	–	–	–
COC(=O)c1ccc2c(c1)S/C(=C/c1ccc3ccc4cccc5ccc1c3c45)S2	40.1 µM (inactive)	20.7 µM (inactive)	19 µM (inactive)	27.6 µM (inactive)	23.7 µM (inactive)	17.3 µM (inactive)	32.7 µM (inactive)	50.6 µM (inactive)	98.4 µM (inactive)	64.4 µM (inactive)	89.3 µM (inactive)	> 100 µM (inactive)	> 100 µM (inactive)	> 100 µM (inactive)	38.3 µM (inactive)	41.4 µM (inactive)	–	–	–	–
CCOC(=O)CSc1nc(N)c2c(-c3ccccc3)c3c(nc2n1)CCCC3	> 100 µM (inactive)	> 100 µM (inactive)	> 100 µM (inactive)	> 100 µM (inactive)	> 100 µM (inactive)	98.6 µM (inactive)	> 100 µM (inactive)	> 100 µM (inactive)	> 100 µM (inactive)	> 100 µM (inactive)	> 100 µM (inactive)	> 100 µM (inactive)	> 100 µM (inactive)	25.1 µM (inactive)	> 100 µM (inactive)	> 100 µM (inactive)	–	–	–	–
COC(=O)[C@H](Cc1c[nH]c2ccccc12)NC(=O)OCC1OC(n2cc(C)c(=O)[nH]c2=O)CC1N=[N+]=[N-] (stereo partly specified)	> 100 µM (inactive)	> 100 µM (inactive)	76 µM (inactive)	> 100 µM (inactive)	> 100 µM (inactive)	84.5 µM (inactive)	> 100 µM (inactive)	> 100 µM (inactive)	> 100 µM (inactive)	49.4 µM (inactive)	> 100 µM (inactive)	> 100 µM (inactive)	> 100 µM (inactive)	> 100 µM (inactive)	> 100 µM (inactive)	> 100 µM (inactive)	–	–	–	–
